Assays:
Carbonic anhydrase 9 = Carbonic anhydrase 9 (Homo sapiens, UniProt Q16790)
Carbonic anhydrase 2 = Carbonic anhydrase 2 (Homo sapiens, UniProt P00918)
Carbonic anhydrase 14 = Carbonic anhydrase 14 (Homo sapiens, UniProt Q9ULX7)
Carbonic anhydrase 1 = Carbonic anhydrase 1 (Homo sapiens, UniProt P00915)
Carbonic anhydrase 7 = Carbonic anhydrase 7 (Homo sapiens, UniProt P43166)
Carbonic anhydrase 7, sequence (P43166 whole entry): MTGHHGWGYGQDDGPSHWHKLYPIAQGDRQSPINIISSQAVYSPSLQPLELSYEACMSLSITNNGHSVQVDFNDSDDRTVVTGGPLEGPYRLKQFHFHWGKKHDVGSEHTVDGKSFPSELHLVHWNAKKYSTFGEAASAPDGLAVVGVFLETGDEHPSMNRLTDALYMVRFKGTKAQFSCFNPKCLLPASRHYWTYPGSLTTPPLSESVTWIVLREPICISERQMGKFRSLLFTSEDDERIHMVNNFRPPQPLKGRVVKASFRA

Carbonic anhydrase 1, sequence (P00915 whole entry): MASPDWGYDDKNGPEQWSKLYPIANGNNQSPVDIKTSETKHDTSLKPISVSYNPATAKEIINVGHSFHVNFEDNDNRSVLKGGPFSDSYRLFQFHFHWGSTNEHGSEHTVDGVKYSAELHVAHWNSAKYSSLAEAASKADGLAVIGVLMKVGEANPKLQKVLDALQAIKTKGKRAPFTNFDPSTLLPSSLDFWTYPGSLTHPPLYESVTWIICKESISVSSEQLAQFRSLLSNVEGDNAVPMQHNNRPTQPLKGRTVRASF
Carbonic anhydrase 14, sequence (Q9ULX7 whole entry): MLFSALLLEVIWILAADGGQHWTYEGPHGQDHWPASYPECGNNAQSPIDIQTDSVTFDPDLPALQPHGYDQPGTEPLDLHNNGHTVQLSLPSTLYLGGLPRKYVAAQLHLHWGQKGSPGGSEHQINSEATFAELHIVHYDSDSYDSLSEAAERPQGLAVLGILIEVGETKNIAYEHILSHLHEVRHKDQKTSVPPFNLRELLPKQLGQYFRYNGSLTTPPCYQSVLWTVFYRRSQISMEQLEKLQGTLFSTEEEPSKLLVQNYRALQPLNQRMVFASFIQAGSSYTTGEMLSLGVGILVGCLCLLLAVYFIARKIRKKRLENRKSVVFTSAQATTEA

| Ki (Carbonic anhydrase 9) [µM] | SMILES | further results |
| --- | --- | --- |
| 0.0038 | COc1ccc(CCNC(=O)c2ccc(S(N)(=O)=O)cc2)cc1OC |  |
| 0.21 | COc1cc2c(cc1OC)C(c1ccc(S(N)(=O)=O)cc1)=NCC2 |  |
| 0.076 | COc1cc2c(cc1OC)C(c1ccc(S(N)(=O)=O)cc1)N(S(N)(=O)=O)CC2 (configuration not stated) |  |
| 0.0065 | COc1cccc(CCNC(=O)c2ccc(S(N)(=O)=O)cc2)c1 |  |
| 0.0081 | CCOc1cccc(CCNC(=O)c2ccc(S(N)(=O)=O)cc2)c1 |  |
| 0.0521 | CCOc1ccc2c(c1)CCN(S(N)(=O)=O)C2c1ccc(S(N)(=O)=O)cc1 (configuration not stated) |  |
| 0.0154 | COc1ccc2c(c1)CCNC2c1ccc(S(N)(=O)=O)cc1 (racemic) |  |

More lines, now with the values behind:

| SMILES | Ki (Carbonic anhydrase 9) [µM] | further results |
| --- | --- | --- |
| COc1cc2c(cc1OC)C(c1ccc(S(N)(=O)=O)cc1)NCC2 (configuration not stated) | 0.13 |  |
| CCCOc1cccc(CCNC(=O)c2ccc(S(N)(=O)=O)cc2)c1 | 0.0083 |  |
| NS(=O)(=O)c1ccc(C(=O)NCCc2cccc(O)c2)cc1 | 0.0417 |  |
| COc1ccc2c(c1)CCN=C2c1ccc(S(N)(=O)=O)cc1 | 0.0183 |  |
| CCOc1ccc2c(c1)CCN=C2c1ccc(S(N)(=O)=O)cc1 | 0.0072 | Ki (Carbonic anhydrase 2): 0.0875 µM; Ki (Carbonic anhydrase 14): 0.0179 µM; Ki (Carbonic anhydrase 1): 1.05 µM; Ki (Carbonic anhydrase 7): 0.0065 µM |
| CCCOc1ccc2c(c1)CCN=C2c1ccc(S(N)(=O)=O)cc1 | 0.0161 | Ki (Carbonic anhydrase 2): 0.0088 µM; Ki (Carbonic anhydrase 14): 0.0087 µM; Ki (Carbonic anhydrase 1): 0.0831 µM; Ki (Carbonic anhydrase 7): 0.008 µM |
| NS(=O)(=O)c1ccc(C2=NCCc3cc(O)ccc32)cc1 | 0.0515 |  |
| NS(=O)(=O)c1ccc(C2NCCc3cc(O)ccc32)cc1 (configuration not stated) | 0.0683 |  |
| COc1ccc2c(c1)CCN(S(N)(=O)=O)C2c1ccc(S(N)(=O)=O)cc1 (configuration not stated) | 0.0065 |  |
| NS(=O)(=O)c1ccc(C2c3ccc(O)cc3CCN2S(N)(=O)=O)cc1 (configuration not stated) | 0.0079 |  |
| CCOc1ccc2c(c1)CCNC2c1ccc(S(N)(=O)=O)cc1 (racemic) | 0.0092 |  |
| CCCOc1ccc2c(c1)CCNC2c1ccc(S(N)(=O)=O)cc1 (racemic) | 0.0092 |  |
